# Patent US20250051283A1, “THERAPEUTIC COMPOUNDS AND METHODS” (priority 2023, published 2025)
# “And” between values parts separate entries of the source, which are not always exact repeats. Identical values can stand only once.
# Key:
# [1] = molecular target: T1, EV-D68 2A^pro (WT-2A^pro, strain US/KY/14-18953, expressed in E. coli BL21(DE3) from pE-SUMOstar vector) (enterovirus D68, UniProt A0A097BW19); assay: FRET-based enzymatic assay of EV-D68 2A^pro inhibition (FRET substrate Dabcyl-KIRIVNT/GPGFGGE-Edans); format: biochemical
# T1 construct: E. coli-codon-optimised gene, pE-SUMOstar, His-SUMO tag (removed with SUMO protease for nontagged form), E. coli BL21(DE3), Ni-NTA; 7JRE is the C107A mutant
# Procedure: (§1) FIG. 4. […] Key structural variations compared to telaprevir were highlighted in red. Enzymatic inhibitory activity IC50 value was determined in the FRET-based assay. Antiviral EC50 value was determined in the CPE assay with EV-D68 US/MO/14-18947 in R.D. cells. Cytotoxicity CC50 value was determined using the neutral red uptake method in R.D. cells. The results are the mean±standard deviation of two independent experiments with three repeats in each experiment.
# as §1, with “5.” for “4.”, “Jun8861” for “telaprevir”
# (§2) Protein expression and purification. EV-D68 2A^pro gene from strain US/KY/14-18953 was ordered from Genscript (Piscataway, NJ) in pET28b(+) vector with E. coli codon optimization. 2A^pro gene was subcloned into pE-SUMOstar vector according to the manufacturers protocol. Plasmid encoding WT-2A^pro was transformed into BL21(DE3) competent E. coli cells, and a single colony was picked and used to inoculate 10 mL of L.B. grown supplemented with 50 μg/mL kanamycin at 37° C. at 250 rpm. The 10 mL inoculant was added to 1 L of L.B. with 50 μg/mL kanamycin and grown to an OD600 of 0.8-1.0, cooled to 18° C., then induced using 0.5 mM IPTG. Induced cultures were incubated at 18° C. for an additional 24 h, then harvested and resuspended in lysis buffer (25 mM Tris (pH 7.5); 750 mM NaCl, 2 mM DTT with 0.5 mg/mL lysozyme, 0.5 mM PMSF and 0.02 mg/mL DNase I) and lysed with alternating sonication and French press cycles. The cell debris were removed by centrifugation at 12,000×g for 45 min […]. The supernatant was incubated with Ni-NTA resin for over 2 h at 4° C. on a rotator. The Ni-NTA resin was thoroughly washed with 50 mM imidazole in wash buffer (50 mM Tris (pH 7.5), 150 mM NaCl, and 2 mM DTT); for the SUMO-tagged protein, the protein was directly eluted with 300 mM imidazole; for the nontagged 2A^pro Ni-NTA resin was treated with SUMO Protease 1 to remove the SUMO tag, then 2A^pro was washed off from the column with 10 mM imidazole in wash buffer. The imidazole was removed via dialysis or 10 K molecular weight cut-off centrifugal concentrator spin column. The purity of the protein was confirmed with SDS-PAGE. The protein concentration was determined by classic BCA assay using bovine serum albumin as a standard. EV-D68 3C^pro in pET28b(+) vector was expressed as previously described^10.
# (§3) Peptide synthesis. The FRET substrate of EV-D68 2A^pro, Dabcyl-KIRIVNT/GPGFGGE-Edans, was synthesized using the Fmoc solid phase synthesis strategy.
# (§4) Enzymatic assays. The reaction buffer contains 50 mM Tris (pH7.0), 150 mM NaCl, 10% Glycerol, and 2 mM DTT, and the reaction was carried out at 30° C. in Cytation 5 imaging reader (Fisher Scientific) with EX360/40-EM460/40 filter. Reactions were monitored every 90 sec. […] The reaction was initiated by adding 20 μM of FRET substrate, and the reaction was monitored for 2 hours and initial velocity was calculated for the first 30 minutes via linear regression.
# [2] = test system: EV-D68 US/MO/14-18947; assay: CPE assay (neutral red) with EV-D68 US/MO/14-18947 in R.D. cells; format: cell-based, Enterovirus D68
# Procedure: (§5) Cell lines and viruses. Human rhabdomyosarcoma (R.D., ATCC, CCL-136) cells were maintained at 37° C. in a 5% CO2 atmosphere and cultured in Dulbecco's modified Eagle's medium (DMEM) supplemented with 10% fetal bovine serum (FBS) and 1% penicillin-streptomycin antibiotics. The following reagents were obtained through BEI Resources, NIAID, NIH: Human Enterovirus D68, US/MO/14-18949, NR-49130; Enterovirus D68, US/MO/14-18947, NR-49129; Enterovirus D68, US/IL/14-18952, NR-49131; Enterovirus D68, US/KY/14-18953, NR-49132; Enterovirus D68, US/IL/14-18956, NR-49133.
# (§6) Antiviral assays. Cells for antiviral assays were seeded and grown overnight at 37° C. in a 5% CO2 atmosphere for ˜90% confluency the next day. For all infections, cells were washed with PBS containing magnesium and calcium and infected with virus diluted in DMEM with 2% FBS and 30 mM MgCl2. Viruses were incubated for at least 1 h at 33° C. in a 5% CO2 atmosphere, followed by the addition of compound as well as 1% penicillin-streptomycin. For CC50 measurements, the experiment was performed similarly but excluded viral infection. For cytopathic effect (CPE) assays, cells were stained with 66 µg/mL neutral red for 2 h and neutral red uptake was measured at absorbance 540 nm using a Multiskan FC Microplate Photometer (ThermoFisher Scientific). The EC50 and CC50 values were calculated from best-fit dose response curves using GraphPad Prism. For plaque reduction assays, an 1.2% avicel microcrystalline cellulose (FMC BioPolymer, Philadelphia, PA) overlay was used and cells were stained after 3 days as previously described^26.
# [3] = molecular target: EV-D68 2A^pro (Enterovirus D68, UniProt A0A097BW19); assay: FRET-based enzymatic assay of EV-D68 2Apro inhibition; format: biochemical; conditions: for IC50: read-out: Enzymatic inhibitory activity IC50
# Procedure: as §2, §3, §4
# [4] = test system: R.D. cells; assay: Cytotoxicity by neutral red uptake in R.D. cells, no viral infection; format: cell-based, Human
# Procedure: as §5, §6
# [5] = as above; format: cell-based, Human; conditions: human, R.D. (rhabdomyosarcoma, ATCC CCL-136) cells, uninfected
# Procedure: as §5, §6
# [6] = test system: EV-D68 US/MO/14-18947; assay: Secondary plaque reduction assay with EV-D68 US/MO/14-18947; format: cell-based, Enterovirus D68
# Procedure: as §5
# as §6, with “For CC50 measurements, the experiment was performed similarly but excluded viral infection.” left out, “For plaque reduction assays, an 1.2% avicel microcrystalline cellulose (FMC BioPolymer, Philadelphia, PA) overlay was used and cells were stained after 3 days as previously described^26.” left out
# [7] = test system: EV-D68 US/IL/14-18952 (clade B2); assay: Broad-spectrum antiviral activity (Table 1), US/IL/14-18952; format: cell-based, Enterovirus D68; conditions: Enterovirus D, EVD68
# Procedure: as §5
# as §6, with “For CC50 measurements, the experiment was performed similarly but excluded viral infection.” left out, “For plaque reduction assays, an 1.2% avicel microcrystalline cellulose (FMC BioPolymer, Philadelphia, PA) overlay was used and cells were stained after 3 days as previously described^26.” left out
# [8] = test system: EV-D68 US/KY/14-18953 (clade D); assay: Broad-spectrum antiviral activity (Table 1), US/KY/14-18953; format: cell-based, Enterovirus D68; conditions: Enterovirus D, EVD68
# Procedure: as §5
# as §6, with “For CC50 measurements, the experiment was performed similarly but excluded viral infection.” left out, “For plaque reduction assays, an 1.2% avicel microcrystalline cellulose (FMC BioPolymer, Philadelphia, PA) overlay was used and cells were stained after 3 days as previously described^26.” left out
# [9] = Enterovirus D, EVD68, RD, read-out: Antiviral EC50, CPE assay, EV-D68 US/MO/14-18947 in R.D. cells
# [10] = CPE assay, EV-D68 US/MO/14-18947 in R.D. cells
Compound,IC50 [1] [nM],"EC50 [2, 9] [nM]",IC50 [3],"antiviral activity, in words, relative to the named comparator [2, 10]","enzymatic inhibition, in words, relative to the named comparator [3]",further results
"CCC[C@H](NC(=O)[C@@H]1[C@H]2CCC[C@H]2CN1C(=O)[C@@H](NC(=O)CC1CCC(F)(F)CC1)C(C)(C)C)C(=O)C(=O)NC1CC1 [Jun975, (1S,3aR,6aS)—N—((S)-1-(cyclopropylamino)-1,2-dioxohexan-3-yl)-2-((S)-2-(2-(4,4-difluorocyclohexyl)acetamido)-3,3-dimethylbutanoyl)octahydrocyclopenta[c]pyrrole-1-carboxamide]",140 ± 10,160 to 750,80 to 140 nM,–,–,–
"CCC[C@H](NC(=O)[C@@H]1[C@H]2CCC[C@H]2CN1C(=O)[C@@H](NC(=O)OCc1ccccc1)C(C)(C)C)C(=O)C(=O)NC1CC1 [Jun7426, Benzyl ((S)-1-((1S,3aR,6aS)-1-(((S)-1-(cyclopropylamino)-1,2-dioxohexan-3-yl)carbamoyl)hexahydrocyclopenta[c]pyrrol-2(1H)-yl)-3,3-dimethyl-1-oxobutan-2-yl)carbamate]",760 ± 100,–,–,reduced enzymatic inhibition and antiviral activity compared to telaprevir,reduced enzymatic inhibition and antiviral activity compared to telaprevir,–
"CCC[C@H](NC(=O)[C@@H]1[C@H]2CCC[C@H]2CN1C(=O)[C@@H](NC(=O)Cc1ccccc1)C(C)(C)C)C(=O)C(=O)NC1CC1 [Jun8681, (1S,3aR,6aS)—N—((S)-1-(cyclopropylamino)-1,2-dioxohexan-3-yl)-2-((S)-3,3-dimethyl-2-(2-phenylacetamido)butanoyl)octahydrocyclopenta[c]pyrrole-1-carboxamide]",250 ± 20,–,–,reduced enzymatic inhibition and antiviral activity compared to telaprevir,reduced enzymatic inhibition and antiviral activity compared to telaprevir,–
"CCC[C@H](NC(=O)[C@@H]1[C@H]2CCC[C@H]2CN1C(=O)[C@@H](NC(=O)C=Cc1ccccc1)C(C)(C)C)C(=O)C(=O)NC1CC1 [Jun8813, (1S,3aR,6aS)-2-((S)-2-cinnamamido-3,3-dimethylbutanoyl)-N—((S)-1-(cyclopropylamino)-1,2-dioxohexan-3-yl)octahydrocyclopenta[c]pyrrole-1-carboxamide]",760 ± 320,–,–,reduced enzymatic inhibition and antiviral activity compared to telaprevir,reduced enzymatic inhibition and antiviral activity compared to telaprevir,–
"CCC[C@H](NC(=O)[C@@H]1[C@H]2CCC[C@H]2CN1C(=O)[C@@H](NC(=O)CC1CCCCC1)C(C)(C)C)C(=O)C(=O)NC1CC1 [Jun8814, (1S,3aR,6aS)-2-((S)-2-(2-cyclohexylacetamido)-3,3-dimethylbutanoyl)-N—((S)-1-(cyclopropylamino)-1,2-dioxohexan-3-yl)octahydrocyclopenta[c]pyrrole-1-carboxamide]",90 ± 10,160 to 750,80 to 140 nM,–,–,–
CCC[C@H](NC(=O)[C@@H]1[C@H]2CCC[C@H]2CN1C(=O)[C@@H](NC(=O)CC12CC3CC(CC(C3)C1)C2)C(C)(C)C)C(=O)C(=O)NC1CC1 [Jun8861],–,160 to 750,80 to 140 nM and 80 nM,–,–,"CC50 [4]: 36200 nM; EC50 ([2]; read-out: Antiviral EC50, CPE assay, EV-D68 US/MO/14-18947 in R.D. cells): 160 nM"
"CC(C)(C)C(NC(=O)CC12CC3CC(CC(C3)C1)C2)C(=O)N1CC2CCCC2C1C(=O)NC(Cc1ccccc1)C(=O)C(=O)NC1CC1 [Jun11385, (1S,3aR,6aS)-2-((S)-2-(2-((3S,5S,7S)-adamantan-1-yl)acetamido)-3,3-dimethylbutanoyl)-N—((S)-4-(cyclopropylamino)-3,4-dioxo-1-phenylbutan-2-yl)octahydrocyclopenta[c]pyrrole-1-carboxamide]",–,–,–,–,–,CC50 [5]: 17400 nM
"CCC(C)[C@H](NC(=O)[C@@H]1[C@H]2CCC[C@H]2CN1C(=O)[C@@H](NC(=O)CC12CC3CC(CC(C3)C1)C2)C(C)(C)C)C(=O)C(=O)NC1CC1 (stereo partly drawn) [Jun11756, (1S,3aR,6aS)-2-((S)-2-(2-((3S,5S,7S)-adamantan-1-yl)acetamido)-3,3-dimethylbutanoyl)-N-((3S,4S)-1-(cyclopropylamino)-4-methyl-1,2-dioxohexan-3-yl)octahydrocyclopenta[c]pyrrole-1-carboxamide]",–,–,–,comparable enzymatic inhibition and antiviral activity as Jun8861,comparable enzymatic inhibition and antiviral activity as Jun8861,EC50 [6]: 13.5 nM
"CC(C)(C)[C@H](NC(=O)CC12CC3CC(CC(C3)C1)C2)C(=O)N1C[C@@H]2CCC[C@@H]2[C@H]1C(=O)N[C@H](C(=O)C(=O)NC1CC1)C1CCCC1 [Jun11808, (1S,3aR,6aS)-2-((S)-2-(2-((3S,5S,7S)-adamantan-1-yl)acetamido)-3,3-dimethylbutanoyl)-N—((S)-1-cyclopentyl-3-(cyclopropylamino)-2,3-dioxopropyl)octahydrocyclopenta[c]pyrrole-1-carboxamide]",200 ± 70,–,–,comparable enzymatic inhibition and antiviral activity as Jun8861,comparable enzymatic inhibition and antiviral activity as Jun8861,–
"CCC[C@H](NC(=O)[C@@H]1[C@H]2CCC[C@H]2CN1C(=O)[C@@H](NC(=O)[C@@H](NC(=O)c1cnccn1)C1CCCCC1)C(C)(C)C)C(=O)C(=O)NC1CC1 [Telaprevir, reference compound]",–,–,–,–,–,EC50 [7]: 828 ± 107 nM; CC50 [4]: 83200 nM; EC50 [8]: 209 ± 37.1 nM
